Measured values taken from paper PMC5855685 (International Journal of Molecular Sciences, 2018).
Converted amounts (≈) assume the structure as drawn. Where two headings read alike, the source gives them in different places.

Tests used:
E. coli (Gram−) = assay: Antimicrobial activity, MIC on Müeller Hinton Agar; type: cell-based, Escherichia coli; details: for MIC: Escherichia coli, read-out: MIC (minimal inhibitory concentration)
Experimental: (§1) The antimicrobial activity of studied compounds was tested against Escherichia coli, Bacillus subtilis, Staphylococcus epidermidis, Streptococcus pyogenes and antifungal activities against Candida sp. The microorganisms used in the experiment were obtained from the American Type Culture Collection-ATCC. Antimicrobial activity was measured as a minimal inhibitory concentration (MIC) with […] Hinton Agar (MHA). Serial two-fold dilutions of chemicals, ranging from 5000, 2500, 1250, 625 to 312, μg/mL were prepared. After the inoculation of microorganisms on MHA plates with certain tested chemical concentrations, the plates were incubated at 37 °C for bacteria and at 30 °C for Candida sp. for 24 and 48 h, respectively. Plates containing sterile water were used as controls. Minimum three repetitions were run for each assay. Ampicillin and kanamycin were used as a reference antibiotics.

Bacillus sp. (Gram+) = assay: Antimicrobial activity, MIC on Müeller Hinton Agar; type: cell-based, Bacillus subtilis; details: for MIC: read-out: MIC (minimal inhibitory concentration)
Experimental: as §1

[1] = tested on: Staphylococcus Epidermidis (Gram+); assay: Antimicrobial activity, MIC on Müeller Hinton Agar; type: cell-based; details: for MIC: read-out: MIC (minimal inhibitory concentration)
Experimental: as §1

[2] = tested on: Streptococcus Pyogenes (Gram+); assay: Antimicrobial activity, MIC on Müeller Hinton Agar; type: cell-based; details: for MIC: read-out: MIC (minimal inhibitory concentration)
Experimental: as §1

Candida sp. = assay: Antifungal activity, MIC on Müeller Hinton Agar; type: cell-based; details: for MIC: Candida, read-out: MIC (minimal inhibitory concentration)
Experimental: as §1

[3] = tested on: E. coli, Bacillus sp., Staphylococcus sp., Streptococcus pyogenes; assay: Antibacterial activity, MIC as summarised in the abstract; type: cell-based; details: summary over tested bacteria (abstract)
Experimental: as §1

Hepatitis B virus = tested on: Hepatitis B virus; design: method as in PMID 19463857; details: cited from earlier work
[4] = tested on: Stenotrophomonas maltophilia, Bacillus careus, Enterococcus faecalis, Bacillus subtilis, Streptococcus pneumoniae; design: method as in PMID 23509719, PMID 21483731, PMID 22417510; details: range over listed bacteria; cited from earlier work
[5] = tested on: multi-drug resistant Staphylococcus aureus; design: method as in PMID 26528244; details: via inhibition of the activity of sortase A; cited from earlier work
[6] = DPPH radical scavenging assay; details: methanolic solution, 40 μM DPPH, 1 h, 23 °C, 516 nm
Experimental: Particular volumes of chlorogenic acid and chlorogenate solutions were added into the test tubes and diluted with methanol to obtain a series of solutions at the concentrations 10–0.1 μM (final volume 1 mL). Then, 2 mL of DPPH was added to each tube, vortexed and incubated in the darkness for 1 h at 23 °C. […] The absorbance of the mixture was measured at 516 nm against methanol as the blank using Agilent Carry 5000 spectrophotometer. The control sample—2 mL of DPPH solution and 1 mL of methanol. […] Then, the concentration of the tested substances was plotted against the % inhibition and the IC50 values were read from the scavenging curves. […] The IC50 parameter was also obtained for butylated hydroxyanisol (BHA), butylated hydroxytoluene (BHT) and L-ascorbic acid and compared with those ones calculated for studied compounds.

[7] = FRAP (ferric reducing antioxidant power) assay; details: Fe2+ equivalents
Experimental: Ferric reducing antioxidant activity was determined in FRAP assay. In order to prepare the FRAP reagent the following reagents: 0.3 M acetate buffer (pH 3.6), 10 mM TPTZ (in 40 mM HCl) and 20 mM FeCl3·6H2O (in water) were mixed in a volumetric ratio 10:1:1 directly before analyses. Then, the FRAP reagent (3 mL) was mixed with the tested substance (0.4 mL; final concentrations C = 2.5 and 5.0 μM). The absorbance was measured at 594 nm against blank (3 mL of FRAP and 0.4 mL of methanol) using an Agilent Carry 5000 spectrophotometer (CA, USA). Antioxidant activity was expressed as Fe^2+ equivalents [μM] using the calibration curve prepared over the range of 1000–20 μM concentration of FeSO4.

[8] = Pro-oxidant activity as rate of oxidation of trolox (H2O2 / horseradish peroxide); details: 100 μM trolox, 50 μM H2O2, pH 7, 25 °C, 272 nm
Experimental: Chlorogenic acid and chlorogenates were also tested for their pro-oxidative effect on trolox oxidation. The radicals of chlorogenic acid and chlorogenates are produced in their reaction with H2O2 catalysed by horse radish peroxide. Then the phenoxyl radicals react with trolox which undergoes oxidation to trolox radicals and then trolox quinones. Whereas the phenoxyl radical are transformed to phenolic compounds. The maximum absorption for trolox quinone is 272 nm. This is a general procedure to study the pro-oxidant activity of phenolic compounds [54].
The pro-oxidant activity of the tested compounds were measured as the rate of oxidation of trolox according to the procedure described by Zeraik et al.. 100 μM trolox, 50 μM H2O2, 0.01 μM horseradish peroxide in phosphate buffer (pH = 7) and tested substances with a concentration from 0.05–0.35 μM were incubated at 25 °C. The measurement were conducted at 272 nm using an Agilent Carry 5000 spectrophotometer.

`O=C(/C=C/c1ccc(O)c(O)c1)O[C@@H]1C[C@](O)(C(=O)O)C[C@@H](O)[C@H]1O` [5-CQA, 5-O-caffeoylquinic acid, reference compound] gave an MIC (E. coli (Gram−); MHA plates, 37 °C, 24 h) of 7.06 mM, an MIC (E. coli (Gram−); value in brackets) of 2500 µg/mL and an MIC (Bacillus sp. (Gram+); MHA plates, 37 °C, 24 h) greater than 7.06 mM. For the same compound, the MIC (Bacillus sp. (Gram+); value in brackets) was greater than 2500 µg/mL, the MIC ([1]; MHA plates, 37 °C, 24 h) was greater than 7.06 mM and the MIC ([1]; value in brackets) was greater than 2500 µg/mL. It also gave an MIC ([2]; MHA plates, 37 °C, 24 h) greater than 7.06 mM, an MIC ([2]; value in brackets) greater than 2500 µg/mL and an MIC (Candida sp.; 48 h, MHA plates, 30 °C, 48 h) of 14.1 mM. The MIC (Candida sp.; value in brackets) was greater than 5000 µg/mL, the “MIC (minimal inhibitory concentration)” value (Candida sp.; MHA plates, 30 °C, 48 h) was greater than 14.11 mM and the MIC [3] was 7.06 mM (≈ 2500 µg/mL). The “IC50 against Hepatitis B virus” value (Hepatitis B virus) was 0.4 µg/mL (≈ 1.13 µM), the MIC [4] was 8 to 64 µg/mL and the IC50 [5] was 33.86 ± 5.55 µg/mL (≈ 95.6 µM).

For `CC1(C)S[C@@H]2[C@H](NC(=O)[C@H](N)c3ccccc3)C(=O)N2[C@H]1C(=O)O` [Ampicillin, reference compound], the MIC (E. coli (Gram−); MHA plates, 37 °C, 24 h) was 0.43 mM, the MIC (Bacillus sp. (Gram+); MHA plates, 37 °C, 24 h) was 0.57 mM and the MIC ([1]; MHA plates, 37 °C, 24 h) was 0.57 mM. For the same compound, the MIC ([2]; MHA plates, 37 °C, 24 h) was 0.57 mM and the MIC (Candida sp.; 48 h, MHA plates, 30 °C, 48 h) was 0.57 mM.

For `Cc1cc(C(C)(C)C)c(O)c(C(C)(C)C)c1` [BHT, butylated hydroxytoluene, reference compound], the EC50 [6] was 52.8 ± 2.83 µM and the “FRAP Values C Fe2+” value ([7]; Ccompound 5 µM) was 69.66 ± 5.54 µM.

In the case of `O=C(/C=C/c1ccc(O)c(O)c1)O[C@@H]1C[C@](O)(C(=O)[O-])C[C@@H](O)[C@H]1O.[Cs+]` [Cs 5-CQA, caesium chlorogenate], the “MIC (minimal inhibitory concentration)” value (E. coli (Gram−); MHA plates, 37 °C, 24 h) is reported as 4.79 mM, the “MIC (minimal inhibitory concentration)” value (Bacillus sp. (Gram+); MHA plates, 37 °C, 24 h) is reported as “˃4.79 mM” and the “MIC (minimal inhibitory concentration)” value ([1]; MHA plates, 37 °C, 24 h) is reported as “˃4.79 mM”. The “MIC (minimal inhibitory concentration)” value ([2]; MHA plates, 37 °C, 24 h) was “˃4.79 mM”, the “MIC (minimal inhibitory concentration)” value (Candida sp.; MHA plates, 30 °C, 48 h) was “˃9.58 mM” and the EC50 [6] was 5.89 ± 1.57 µM. The “FRAP Values C Fe2+” value ([7]; Ccompound 2.5 µM) was 80.47 ± 5.68 µM.

For `O=C(/C=C/c1ccc(O)c(O)c1)O[C@@H]1C[C@](O)(C(=O)[O-])C[C@@H](O)[C@H]1O.[K+]` [K 5-CQA, potassium chlorogenate], the “MIC (minimal inhibitory concentration)” value (E. coli (Gram−); MHA plates, 37 °C, 24 h) was 5.96 mM, the “MIC (minimal inhibitory concentration)” value (Bacillus sp. (Gram+); MHA plates, 37 °C, 24 h) was 5.96 mM and the “MIC (minimal inhibitory concentration)” value ([1]; MHA plates, 37 °C, 24 h) was 2.98 mM. The “MIC (minimal inhibitory concentration)” value ([2]; MHA plates, 37 °C, 24 h) was “˃5.96 mM”, the “MIC (minimal inhibitory concentration)” value (Candida sp.; MHA plates, 30 °C, 48 h) was 5.96 mM and the EC50 [6] was 5.32 ± 0.49 µM. The “FRAP Values C Fe2+” value ([7]; Ccompound 2.5 µM) was 99.89 ± 7.05 µM, the “FRAP Values C Fe2+” value ([7]; Ccompound 5 µM) was 132.00 ± 6.07 µM and the “time after which the oxidation of trolox finished” value (from here on “time after which the oxidation”) ([8]; compound 0.25 μM) was 40 min. The “time after which the oxidation” value ([8]; compound 0.35 μM) was 20 min.

For `NC[C@H]1O[C@H](O[C@H]2[C@H](O)[C@@H](O[C@H]3O[C@H](CO)[C@@H](O)[C@H](N)[C@H]3O)[C@H](N)C[C@@H]2N)[C@H](O)[C@@H](O)[C@@H]1O` [Kanamycin, reference compound], the “MIC (minimal inhibitory concentration)” value (E. coli (Gram−); MHA plates, 37 °C, 24 h) was 0.21 mM (≈ 102 µg/mL), the “MIC (minimal inhibitory concentration)” value (Bacillus sp. (Gram+); MHA plates, 37 °C, 24 h) was 0.21 mM (≈ 102 µg/mL) and the “MIC (minimal inhibitory concentration)” value ([1]; MHA plates, 37 °C, 24 h) was 0.21 mM (≈ 102 µg/mL). For the same compound, the “MIC (minimal inhibitory concentration)” value ([2]; MHA plates, 37 °C, 24 h) was 0.21 mM (≈ 102 µg/mL) and the “MIC (minimal inhibitory concentration)” value (Candida sp.; MHA plates, 30 °C, 48 h) was 0.41 mM (≈ 199 µg/mL).

With `O=C1O[C@H]([C@@H](O)CO)C(O)=C1O` [L-ascorbic acid, reference compound] the EC50 [6] was 10.9 ± 0.53 µM and the “FRAP Values C Fe2+” value ([7]; Ccompound 5 µM) was 81.70 ± 4.23 µM.

For `O=C(/C=C/c1ccc(O)c(O)c1)O[C@@H]1C[C@](O)(C(=O)[O-])C[C@@H](O)[C@H]1O.[Li+]` [Li 5-CQA, lithium chlorogenate], the “MIC (minimal inhibitory concentration)” value (E. coli (Gram−); MHA plates, 37 °C, 24 h) was 6.46 mM, the “MIC (minimal inhibitory concentration)” value (Bacillus sp. (Gram+); MHA plates, 37 °C, 24 h) was “˃6.46 mM” and the “MIC (minimal inhibitory concentration)” value ([1]; MHA plates, 37 °C, 24 h) was “˃6.46 mM”. The “MIC (minimal inhibitory concentration)” value ([2]; MHA plates, 37 °C, 24 h) was “˃6.46 mM”, the “MIC (minimal inhibitory concentration)” value (Candida sp.; MHA plates, 30 °C, 48 h) was “˃12.91 mM” and the EC50 [6] was 5.28 ± 0.375 µM. For the same compound, the “FRAP Values C Fe2+” value ([7]; Ccompound 2.5 µM) was 78.93 ± 4.23 µM and the “time after which the oxidation” value ([8]; compound 0.35 μM) was 20 min.

With `O=C(/C=C/c1ccc(O)c(O)c1)O[C@@H]1C[C@](O)(C(=O)[O-])C[C@@H](O)[C@H]1O.[Na+]` [Na 5-CQA, sodium chlorogenate] the “MIC (minimal inhibitory concentration)” value (E. coli (Gram−); MHA plates, 37 °C, 24 h) was 6.20 mM, the “MIC (minimal inhibitory concentration)” value (Bacillus sp. (Gram+); MHA plates, 37 °C, 24 h) was “˃6.20 mM” and the “MIC (minimal inhibitory concentration)” value ([1]; MHA plates, 37 °C, 24 h) was “˃6.20 mM”. For the same compound, the “MIC (minimal inhibitory concentration)” value ([2]; MHA plates, 37 °C, 24 h) was “˃6.20 mM”, the “MIC (minimal inhibitory concentration)” value (Candida sp.; MHA plates, 30 °C, 48 h) was “˃12.40 mM” and the EC50 [6] was 4.5 ± 0.36 µM. The “FRAP Values C Fe2+” value ([7]; Ccompound 2.5 µM) was 103.08 ± 2.79 µM, the “FRAP Values C Fe2+” value ([7]; Ccompound 5 µM) was 141.13 ± 5.78 µM and the “time after which the oxidation” value ([8]; compound 0.35 μM) was 20 min.

In the case of `O=C(/C=C/c1ccc(O)c(O)c1)O[C@@H]1C[C@](O)(C(=O)[O-])C[C@@H](O)[C@H]1O.[Rb+]` [Rb 5-CQA, rubidium chlorogenate], the “MIC (minimal inhibitory concentration)” value (E. coli (Gram−); MHA plates, 37 °C, 24 h) is reported as 2.63 mM, the “MIC (minimal inhibitory concentration)” value (Bacillus sp. (Gram+); MHA plates, 37 °C, 24 h) is reported as 5.27 mM and the “MIC (minimal inhibitory concentration)” value ([1]; MHA plates, 37 °C, 24 h) is reported as 5.27 mM. For the same compound, the “MIC (minimal inhibitory concentration)” value ([2]; MHA plates, 37 °C, 24 h) was 2.63 mM, the “MIC (minimal inhibitory concentration)” value (Candida sp.; MHA plates, 30 °C, 48 h) was 5.27 mM and the EC50 [6] was 5.4 ± 0.68 µM. For the same compound, the “FRAP Values C Fe2+” value ([7]; Ccompound 2.5 µM) was 86.70 ± 2.86 µM and the “time after which the oxidation” value ([8]; compound 0.25 μM) was 40 min.

With `Cc1c(C)c2c(c(C)c1O)CCC(C)(C(=O)O)O2` (stereo not shown) [Trolox, reference compound] the EC50 [6] was 8.25 ± 0.75 µM and the “FRAP Values C Fe2+” value ([7]; Ccompound 5 µM) was 70.85 ± 3.57 µM.
